From ChEMBL document CHEMBL6182843, “Actinomycetes: Treasure trove for discovering novel antibiotic candidates” (2025)
≈ marks a conversion by molar mass, not a printed value.

Tests used:
Assay type in all cases: functional
[1] = system: Xanthomonas oryzae; experiment: Antibacterial activity against Xanthomonas oryzae
[2] = system: Xanthomonas campestris; experiment: Antibacterial activity against Xanthomonas campestris
[3] = system: Staphylococcus aureus; experiment: Antibacterial activity against methicillin-resistant Staphylococcus aureus ATCC 43300 assessed as reduction in bacterial growth measured for 12 hrs by CLSI protocol based broth microdilution method
[4] = system: Staphylococcus aureus; experiment: Antibacterial activity against methicillin-resistant Staphylococcus aureus
[5] = system: Escherichia coli; experiment: Antibacterial activity against Escherichia coli
[6] = system: Staphylococcus aureus; experiment: Antibacterial activity against Staphylococcus aureus
[7] = system: Bacillus cereus; experiment: Antibacterial activity against Bacillus cereus
[8] = system: Staphylococcus aureus; experiment: Antibacterial activity against Staphylococcus aureus ATCC 33592 assessed as reduction in microbial growth
[9] = system: Staphylococcus aureus; experiment: Antibacterial activity against Staphylococcus aureus ATCC 25923 assessed as reduction in microbial growth
[10] = system: Bacillus subtilis; experiment: Antibacterial activity against Bacillus subtilis ATCC 6633 assessed as reduction in microbial growth
[11] = system: Bacillus subtilis; experiment: Antibacterial activity against Bacillus subtilis
[12] = system: Enterococcus faecalis; experiment: Antibacterial activity against Vancomycin-resistant Enterococcus faecalis ATCC 51299
[13] = system: Staphylococcus aureus; experiment: Antibacterial activity against Staphylococcus aureus ATCC 33591
[14] = system: Streptococcus suis; experiment: Antibacterial activity against Streptococcus suis SC19 assessed as reduction in bacterial growth by CLSI protocol based MHB micro-silution method
[15] = system: Staphylococcus aureus; experiment: Antibacterial activity against Staphylococcus aureus ATCC 25923 assessed as reduction in bacterial growth by CLSI protocol based MHB micro-silution method
[16] = system: Escherichia coli; experiment: Antibacterial activity against […] Escherichia coli ATCC 25922 assessed as reduction in bacterial growth measured for 12 hrs by CLSI protocol based broth microdilution method
[17] = system: Staphylococcus epidermidis; experiment: Antimicrobial activity against Staphylococcus epidermidis ATCC 12228 assessed as reduction in microbial growth incubated for 16 hrs by CLSI protocol based Mueller-Hinton broth micro-dilution method
[18] = system: Staphylococcus aureus; experiment: Antimicrobial activity against Staphylococcus aureus ATCC 29213 assessed as reduction in microbial growth incubated for 16 hrs by CLSI protocol based Mueller-Hinton broth micro-dilution method

CO[C@H]1/C=C\C=C(/C)C(=O)NC2=CC(=O)C(O)=C(C[C@@H](C)C[C@H](OC)[C@H](O)[C@@H](C)/C=C(\C)[C@@H]1OC(N)=O)C2=O
MIC [1]: 0.125 µg/mL (≈ 0.229 µM)
MIC [2]: 0.25 µg/mL (≈ 0.457 µM)

CO[C@H]1C[C@H](C)Cc2cc(O)cc(c2)NC(=O)/C(C)=C/CC[C@H](OC)[C@@H](OC(N)=O)/C(C)=C/[C@H](C)[C@H]1O
MIC [1]: 0.25 µg/mL (≈ 0.482 µM)
MIC [2]: 2.03 µg/mL (≈ 3.91 µM)

CC(=O)c1cc(C)c(C)n1CCc1c[nH]c2ccccc12
MIC [3]: 25 µg/mL (≈ 89.2 µM)

CC(C)c1cc(=O)c2c(cc(O)c3c(=O)c4c(O)c(Br)ccc4c(=O)c32)c1=O
MIC [4]: 0.098 µg/mL

CC[C@@H]1NC(=O)[C@@H](CC(C)C)NC(=O)C(NC(=O)[C@@H](CC(=O)C(CC(=O)C(CC(O)c2ccccc2)NC(=O)[C@@H](CCCN)NC(=O)CCNC(=O)/C=C\C=C\C(C)C)C(O)CC(=O)O)Cc2ccc(O[C@@H]3OC[C@H](O)[C@H](O)[C@H]3O)cc2)C(C)NC(=O)[C@@H]2CCCN2C(=O)[C@H](C)NC(=O)[C@H](CC(=O)c2ccc(Cl)cc2N)NC(=O)CNC(=O)[C@H](CO)NC(=O)CNC1=O (stereo partly drawn)
MIC [5]: > 64 µg/mL
MIC [6]: 0.5 µg/mL (≈ 0.275 µM)

CC1=C(CC2=C(O)C(=O)c3cc(O)c(C)c(O)c3C2=O)CCC(C)(C)C1
MIC [7]: 6.25 µg/mL (≈ 17.5 µM)

CC[C@H](C)[C@@H]1NC(=O)[C@@H](Cc2c[nH]c3cc(Br)ccc23)NC(=O)[C@@H](Cc2c[nH]c3ccccc23)NC(=O)[C@@H](CO)NC(=O)[C@@H](CCC(=O)O)NC(=O)[C@@H](C(C)C)NC1=O
MIC [8]: 6.3 µg/mL
MIC [9]: 6.3 µg/mL
MIC [10]: 1.6 µg/mL

CCc1c(Cc2ccccc2)oc(=O)c(CC)c1O
MIC [11]: > 50 µg/mL
MIC [4]: 12.5 µg/mL

COc1cc2oc3c(O)c4c(c(O)c3c(=O)c2cc1O)-c1c(cc2cc(C)n(CCO)c(=O)c2c1O)CC4
MIC [12]: 0.25 µg/mL (≈ 0.483 µM)
MIC [13]: 0.25 µg/mL (≈ 0.483 µM)

CCC[C@@H](O)Cc1cc(O)cc2c1C(=O)c1c(O)ccc(O)c1C2=O
MIC [14]: 1.56 µg/mL (≈ 4.56 µM)
MIC [15]: 1.56 µg/mL (≈ 4.56 µM)

C=CC(C)(C)ON(CCCCCCC(O)CCCCCc1nc(CCCNC(=N)NCC=C(C)C)c(OC)nc1CCCNC(=N)NCC=C(C)C)C(=N)N (stereo not drawn)
MIC [5]: 1 µg/mL
MIC [4]: 1 µg/mL

COC(=O)c1csc(-c2nc3c(-c4ccc(OC)cc4)c(OC)c(O)c(-c4ccc(OC)cc4)c3s2)n1
MIC [11]: 0.8 µg/mL (≈ 1.5 µM)
MIC [5]: 0.8 µM
MIC [4]: > 50 µg/mL

COC(=O)[C@]1(O)C[C@@H](C)C[C@H](OC)[C@H](O)[C@@H](C)C/C=C(/C)[C@H](OC(N)=O)[C@@H](OC)/C=C\C=C(/C)C(=O)NC2=CC(=O)O[C@]21O
MIC [1]: 2.03 µg/mL (≈ 3.25 µM)
MIC [2]: 16.2 µg/mL (≈ 26 µM)

CC(=O)NCCc1c(CC2c3ccccc3[C@]3(O)CCN(C(C)=O)[C@@]23O)[nH]c2ccccc12 (stereo partly drawn)
MIC [3]: 25 µg/mL (≈ 55.9 µM)
MIC [16]: 13 µg/mL (≈ 29 µM)

COc1cc2oc3c(c(=O)c2cc1O)C(=O)C1=C(CCc2cc4cc(C)n(CCO)c(=O)c4c(O)c21)C3=O
MIC [12]: 0.25 µg/mL (≈ 0.485 µM)
MIC [13]: 0.12 µg/mL (≈ 0.233 µM)

C/C=C1\NC(=O)[C@@H](CC)NC(=O)CNC(=O)[C@@](C)(C(C)=O)NC(=O)[C@H](Cc2c[nH]c3ccc(O)c(OC)c23)NC(=O)c2csc(n2)[C@@H](C)NC(=O)CNC1=O
MIC [17]: 12.5 µM
MIC [18]: 200 µg/mL

C/C=C1\NC(=O)[C@@H](C)NC(=O)CNC(=O)[C@@](C)(C(C)=O)NC(=O)[C@H](Cc2c[nH]c3cccc(OC)c23)NC(=O)c2csc(n2)[C@@H](C)NC(=O)CNC1=O
MIC [17]: 50 µM
MIC [18]: 12.5 µg/mL

CC(=O)NCCc1c(CN2c3ccccc3[C@@]3(O)CCN(C(C)=O)[C@]23O)[nH]c2ccccc12
MIC [3]: 7 µg/mL (≈ 15.6 µM)
MIC [16]: 25 µg/mL (≈ 55.7 µM)

C=CC(C)(C)ON(CCCCCCCCCCCC(O)c1nc(CCCNC(=N)N)c(OC)nc1CCCNC(=N)N)C(=N)N (stereo not drawn)
MIC [5]: 1.5 µg/mL
MIC [4]: 0.8 µg/mL

CC[C@@H]1NC(=O)[C@@H](CC(C)C)NC(=O)C(NC(=O)[C@@H](CC(=O)C(CC(=O)C(CC(O)c2ccccc2)NC(=O)[C@@H](CCCNC(=O)CCN)NC(=O)CCNC(=O)/C=C\C=C\C(C)C)C(O)CC(=O)O)Cc2ccc(O[C@@H]3OC[C@H](O)[C@H](O)[C@H]3O)cc2)C(C)NC(=O)[C@@H]2CCCN2C(=O)[C@H](C)NC(=O)[C@H](CC(=O)c2ccc(Cl)cc2N)NC(=O)CNC(=O)[C@H](CO)NC(=O)CNC1=O (stereo partly drawn)
MIC [5]: > 64 µg/mL
MIC [6]: 1 µg/mL (≈ 0.53 µM)

CC(=O)NC(CSc1c(C(C)C)c(=O)c2cc(O)c3c(=O)c4c(O)cccc4c(=O)c3c2c1=O)C(=O)O (stereo not drawn)
MIC [4]: 0.195 µg/mL

CC[C@H]1NC(=O)CNC(=O)[C@@](C)(C(C)=O)NC(=O)[C@H](Cc2c[nH]c3cccc(OC)c23)NC(=O)c2csc(n2)[C@@H](C)NC(=O)CNC(=O)/C(=C/CO)NC1=O
MIC [17]: 1.6 µM
MIC [18]: 25 µg/mL

COC(=O)CCSC1=C(c2ccc(OC)cc2)C(O)C(OC)=C(c2ccc(OC)cc2)C1=O (stereo not drawn)
MIC [4]: 12.5 µM
